# Test results: US6372768B1, “2-aminopyridines containing fused ring substituents” (Pfizer INC, priority 1999, dated 2002)
# Structures can show the parent of a compound that is named as a salt.
row,melting point,SMILES
1,170 to 172 °C,"Nc1cccc(-c2ccc(OCCO)c3c2CCCC3)n1 (as salt: hydrochloride) [Example 2, 6-[4-(2-Hydroxy-ethoxy)-5,6,7,8-tetrahydro-naphthalen-1-yl]-pyridin-2-ylamine]"
2,60 to 75 °C (dec.),"CN(C)CCOCCOc1ccc(-c2cccc(N)n2)c2ccccc12 (as salt: hydrochloride) [Example 3, 6-[4-(2-(2-Dimethylaminoethoxy)-ethoxy)-naphthalen-1-yl]-pyridin-2-ylamine]"
